From paper PMC3105188 (The Journal of steroid biochemistry and molecular biology, 2011)
Positions count from the first letter of the chain named. Entries after “also recorded” stand apart in the source; their conditions may differ. Read-outs that look alike come from different tables or passages of the source.

Assays:
hVDR mutant H305Y [1] = target: T1, hVDR mutant H305Y (Homo sapiens, UniProt P11473, H305Y); format: cell-based; settings: HEK293T
T1 sequence (P11473 127-423 H305Y limits assumed): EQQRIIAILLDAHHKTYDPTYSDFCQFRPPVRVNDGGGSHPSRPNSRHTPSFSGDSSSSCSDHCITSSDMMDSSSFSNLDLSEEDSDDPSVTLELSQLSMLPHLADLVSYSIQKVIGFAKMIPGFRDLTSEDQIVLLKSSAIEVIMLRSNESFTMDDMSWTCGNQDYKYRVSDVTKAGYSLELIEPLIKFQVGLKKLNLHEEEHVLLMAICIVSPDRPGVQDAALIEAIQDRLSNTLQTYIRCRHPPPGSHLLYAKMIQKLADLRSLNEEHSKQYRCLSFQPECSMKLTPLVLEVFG

wild-type hVDR [2] = target: T2, wild-type hVDR (Homo sapiens, UniProt P11473); format: cell-based
T2 sequence (P11473 1-427): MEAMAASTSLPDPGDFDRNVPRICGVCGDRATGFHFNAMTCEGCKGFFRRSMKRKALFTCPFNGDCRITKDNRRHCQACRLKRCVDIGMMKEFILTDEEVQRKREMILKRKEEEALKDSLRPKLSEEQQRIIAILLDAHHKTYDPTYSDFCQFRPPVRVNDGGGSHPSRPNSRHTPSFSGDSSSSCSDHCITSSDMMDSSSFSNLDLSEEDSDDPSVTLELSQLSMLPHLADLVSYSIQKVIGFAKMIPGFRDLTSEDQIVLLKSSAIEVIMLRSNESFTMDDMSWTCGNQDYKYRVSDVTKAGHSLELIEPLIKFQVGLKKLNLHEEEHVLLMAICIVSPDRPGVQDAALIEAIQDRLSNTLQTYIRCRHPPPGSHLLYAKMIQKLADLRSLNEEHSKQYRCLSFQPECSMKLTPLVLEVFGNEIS

wild-type hVDR [3] = target: T3, wild-type hVDR (Homo sapiens, UniProt P11473); format: cell-based; settings: HEK293T
T3 sequence (P11473 127-423 limits assumed): T1 sequence (P11473 127-423 H305Y limits assumed) with Y179H

hVDR mutant H305F [4] = target: T4, hVDR mutant H305F (Homo sapiens, UniProt P11473, H305F); format: cell-based; settings: HEK293T
T4 sequence (P11473 127-423 H305F limits assumed): T1 sequence (P11473 127-423 H305Y limits assumed) with Y179F

hVDR mutant H305F/H397Y [5] = target: T5, hVDR mutant H305F/H397Y (Homo sapiens, UniProt P11473, H305F/H397Y); format: cell-based
T5 sequence (P11473 127-423 H305F/H397Y limits assumed): T1 sequence (P11473 127-423 H305Y limits assumed) with Y179F, H271Y

hVDR mutant H305F/H397Y [6] = target: hVDR mutant H305F/H397Y (Homo sapiens, UniProt P11473, H305F/H397Y); settings: adenine selective media (-ALW)
Target sequence in this assay (P11473 127-423 H305F/H397Y limits assumed): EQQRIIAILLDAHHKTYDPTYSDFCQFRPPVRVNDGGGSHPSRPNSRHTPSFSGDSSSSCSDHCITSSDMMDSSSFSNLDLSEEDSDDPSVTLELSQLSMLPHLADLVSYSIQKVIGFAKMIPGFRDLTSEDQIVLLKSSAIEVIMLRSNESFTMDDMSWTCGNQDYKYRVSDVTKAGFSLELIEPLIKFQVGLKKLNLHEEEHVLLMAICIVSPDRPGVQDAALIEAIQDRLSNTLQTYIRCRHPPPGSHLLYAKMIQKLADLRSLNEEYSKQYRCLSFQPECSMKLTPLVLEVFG
Target sequence in this assay (Q9Y6Q9 whole entry partner): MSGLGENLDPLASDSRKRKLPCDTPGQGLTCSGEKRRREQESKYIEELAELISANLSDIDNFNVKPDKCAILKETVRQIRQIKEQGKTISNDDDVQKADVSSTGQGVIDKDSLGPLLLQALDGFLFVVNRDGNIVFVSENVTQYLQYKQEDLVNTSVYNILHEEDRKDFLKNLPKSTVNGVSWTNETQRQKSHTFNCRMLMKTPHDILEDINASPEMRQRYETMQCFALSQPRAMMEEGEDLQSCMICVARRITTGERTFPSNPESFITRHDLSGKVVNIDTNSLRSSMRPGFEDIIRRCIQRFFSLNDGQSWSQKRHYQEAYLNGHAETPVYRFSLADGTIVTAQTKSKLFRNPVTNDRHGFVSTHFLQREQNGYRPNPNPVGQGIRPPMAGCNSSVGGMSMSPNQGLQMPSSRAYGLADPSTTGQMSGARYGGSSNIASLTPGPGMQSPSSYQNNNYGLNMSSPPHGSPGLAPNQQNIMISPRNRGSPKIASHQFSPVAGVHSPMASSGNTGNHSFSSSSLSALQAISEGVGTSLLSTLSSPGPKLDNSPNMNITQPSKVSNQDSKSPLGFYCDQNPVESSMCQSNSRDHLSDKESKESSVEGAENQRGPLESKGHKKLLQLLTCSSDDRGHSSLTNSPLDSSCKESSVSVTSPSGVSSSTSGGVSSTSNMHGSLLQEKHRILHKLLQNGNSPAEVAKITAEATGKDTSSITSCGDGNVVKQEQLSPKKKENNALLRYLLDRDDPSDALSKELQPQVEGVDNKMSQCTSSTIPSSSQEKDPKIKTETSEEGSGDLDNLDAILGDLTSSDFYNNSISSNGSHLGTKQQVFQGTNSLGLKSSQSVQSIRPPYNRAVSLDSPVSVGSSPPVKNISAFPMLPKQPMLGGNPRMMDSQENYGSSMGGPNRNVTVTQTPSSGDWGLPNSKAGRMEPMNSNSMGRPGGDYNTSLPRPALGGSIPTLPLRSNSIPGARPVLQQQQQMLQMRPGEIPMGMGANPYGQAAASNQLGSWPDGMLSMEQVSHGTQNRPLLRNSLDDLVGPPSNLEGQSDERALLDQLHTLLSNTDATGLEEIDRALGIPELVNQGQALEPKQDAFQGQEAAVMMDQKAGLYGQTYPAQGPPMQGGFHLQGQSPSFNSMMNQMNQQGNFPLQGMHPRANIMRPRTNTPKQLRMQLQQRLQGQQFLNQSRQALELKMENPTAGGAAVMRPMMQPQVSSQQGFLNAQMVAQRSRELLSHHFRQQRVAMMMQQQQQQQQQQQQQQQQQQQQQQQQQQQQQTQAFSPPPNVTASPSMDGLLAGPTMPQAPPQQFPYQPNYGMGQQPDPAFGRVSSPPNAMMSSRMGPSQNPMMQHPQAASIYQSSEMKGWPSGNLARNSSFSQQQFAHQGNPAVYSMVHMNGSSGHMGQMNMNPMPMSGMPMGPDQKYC

hVDR mutant H305F [7] = target: hVDR mutant H305F (Homo sapiens, UniProt P11473, H305F); assay: Chemical complementation, yeast PJ69-4A liquid quantitation growth assay; format: cell-based
Target sequence in this assay (P11473 127-423 H305F limits assumed): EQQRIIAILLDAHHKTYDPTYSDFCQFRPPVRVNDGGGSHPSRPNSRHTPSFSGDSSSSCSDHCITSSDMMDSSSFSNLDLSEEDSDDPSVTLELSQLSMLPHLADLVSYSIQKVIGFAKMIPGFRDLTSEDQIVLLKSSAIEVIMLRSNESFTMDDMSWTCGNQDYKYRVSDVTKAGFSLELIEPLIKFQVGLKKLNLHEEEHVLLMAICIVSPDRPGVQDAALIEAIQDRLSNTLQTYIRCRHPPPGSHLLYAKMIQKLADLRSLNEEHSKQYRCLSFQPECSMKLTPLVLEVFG
Target sequence in this assay (Q9Y6Q9 whole entry partner): as the sequence (Q9Y6Q9 whole entry partner) above

hVDR mutant H305Y [8] = target: hVDR mutant H305Y (Homo sapiens, UniProt P11473, H305Y); assay: as above; format: cell-based
Target sequence in this assay (Q9Y6Q9 whole entry partner, one chain of several): as the sequence (Q9Y6Q9 whole entry partner) above

hVDR H305F = settings: antagonist on wild-type hVDR; cited from earlier work
[9] = histidine selective media (data not shown)

Row | ligand concentration at which growth/activation is observed (hVDR mutant H305F/H397Y [6]) [µM] | ligand-activated growth (in words) (wild-type hVDR [2]; adenine selective media (-ALW)) | ligand concentration at which growth is observed (wild-type hVDR [2]; histidine selective media (SC-HLW + 0.1 mM 3AT), OD 630) [µM] | ligand concentration at which activation is displayed (wild-type hVDR [3]) [µM] | ligand concentration at which growth is observed (hVDR mutant H305F [7]; adenine selective media (-ALW)) [µM] | ligand concentration at which growth is observed (hVDR mutant H305F [7]; [9]) [µM] | ligand concentration at which growth is observed (hVDR mutant H305Y [8]; adenine selective media (-ALW)) [µM] | ligand concentration at which growth is observed (hVDR mutant H305Y [8]; [9]) [µM] | ligand concentration at which activation is displayed (hVDR mutant H305F/H397Y [5]; HEK293T) [µM] | SMILES | ligand concentration at which activation is displayed (hVDR mutant H305Y [1]) [µM] | ligand-activated growth (in words) (wild-type hVDR [2]; Figure 2B, any ligand concentration) | activation of receptor (in words) (wild-type hVDR [3]) | ligand concentration at which activation is displayed (hVDR mutant H305F [4]) [µM] | lowest ligand concentration giving activation (hVDR mutant H305F/H397Y [5]; mammalian cell assays) [nM] | functional character with the H305F mutation (in words) (hVDR H305F)
1 |  |  |  |  |  |  |  |  |  | C=C1CC[C@H](O)C/C1=C/C=C1\CCC[C@]2(C)[C@@H]([C@H](C)CCCC(C)C)CC[C@@H]12 [Cholecalciferol, cholecalciferol] | 1 | No ligand activated growth; also recorded: not observed | does not activate; also recorded: no activation | 1 | 100 | 
2 | 1 | no growth | 10 | 100 | 1 | 0.1 | 1 | 0.1 | 1 | C[C@H](CCC(=O)O)[C@H]1CC[C@H]2[C@@H]3CC[C@@H]4C[C@H](O)CC[C@]4(C)[C@H]3CC[C@]12C [Lithocholic Acid, lithocholic acid] | 1 |  |  |  |  | 
3 |  |  |  |  |  |  |  |  |  | C=C1C[C@H](C[C@@H](C)[C@H]2CC[C@H]3/C(=C/C=C4/C[C@@H](O)C[C@H](O)C4=C)CCC[C@]23C)OC1=O [MK, (23S)-25-dehydro-1alpha(OH)-vitamin D3-26,23-lactone] |  |  |  |  |  | superagonist
